# In US6835382B2, “Ii peptide therapeutics to enhance antigen presentation” (University of Massachusetts, priority 1996, dated 2004):
# Non-standard residues stand in square brackets, D forms with d. Cit = NC(=O)NCCC[C@H](N)C(=O)O; Orn = NCCC[C@H](N)C(=O)O
# How the values were obtained:
# [1] = target: T1, murine E^d MHC class II allele (Mus musculus, UniProt P01904+P01915); test: simultaneous assay, E^d allele (A20 APC, G28.C9 T hybridoma, HEL106-116; HT-2 [3H]TdR readout); assay type: cell-based; design: The A20 and CH27 B cell lymphoma lines express H-2^d and H-2^k alleles, respectively; endogenous in cells; host or cells: A20 B cell lymphoma (mitomycin C-treated or paraformaldehyde-fixed); conditions: for Times Baseline Response, Ed: Table 3
# T1 sequence (P01904 26-255): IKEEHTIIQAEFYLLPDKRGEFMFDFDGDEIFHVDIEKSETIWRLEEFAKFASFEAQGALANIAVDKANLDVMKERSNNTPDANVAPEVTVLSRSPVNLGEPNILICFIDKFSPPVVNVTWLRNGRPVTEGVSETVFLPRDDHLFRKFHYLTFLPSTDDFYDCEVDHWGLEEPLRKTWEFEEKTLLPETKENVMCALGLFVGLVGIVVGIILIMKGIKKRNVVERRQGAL
# T1 sequence (P01915 27-264 limits assumed): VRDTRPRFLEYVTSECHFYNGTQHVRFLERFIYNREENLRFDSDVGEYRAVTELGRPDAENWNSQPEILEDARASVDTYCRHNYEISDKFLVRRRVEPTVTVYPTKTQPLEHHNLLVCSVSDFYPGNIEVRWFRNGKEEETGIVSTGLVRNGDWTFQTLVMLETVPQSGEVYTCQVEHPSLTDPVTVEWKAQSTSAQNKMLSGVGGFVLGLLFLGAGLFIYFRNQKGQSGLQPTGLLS
# Protocol: (§1) Examples 1-4 (Tables 1-18) will be briefly considered in order to establish the concept of tolerance discussed above. These examples describe experimental results observed in the so-called “simultaneous” assay. In the simultaneous assay four principle components are cultured together for a 24 hour period. The components of this culture, which are added simultaneously, are: (a) an antigenic peptide characterized by the ability to bind specifically into the antigenic peptide binding groove of an MHC class II molecule, (b) mitomycin C-treated, MHC class II-positive antigen presenting cells (APC) bearing the MHC class II allele required for binding of the specific antigenic peptide, and presentation of the specific antigenic peptide to the antigenic peptide-specific T cell hybridoma, (c) an effector compound of the present invention, and (d) an MHC class II allele-restricted T cell hybridoma specific for the antigenic peptide and the MHC class II allele restricting its presentation. Following incubation of this primary culture, an aliquot of its supernatant is transferred into a second culture well for incubation with an interleukin-dependent lymphoblastoid cell line. The degree of stimulation of that second, indicator cell by the interleukins which had been released from the activated T cell hybridoma in the primary culture is measured by quantitating tritiated thymidine deoxyribose {[^3H]TdR} uptake into the DNA of the HT-2 indicator cells of that second culture.
# (§2) In the “simultaneous assay” the four components of the assay are cultured together for a 24 h period. The components of this primary culture, added at the same time or simultaneously, are: (a) the antigenic peptide, (b) mitomycin C-treated, MHC class II-positive antigen presenting cells (APC) with the MHC class II allele required for binding of the specific antigenic peptide and its presentation to the antigenic peptide-specific T cell hybridoma, (c) an AE101 series effector peptide, and (d) MHC class II allele-restricted T cell hybridoma specific for the antigenic peptide and the MHC class II allele restricting its presentation. At the end of the incubation of this primary culture, an aliquot of its supernatant is transferred into a second culture well for incubation with an interleukin-dependent lymphoblastoid cell line. The degree of stimulation of that second, indicator cell by the interleukins which had been released from the activated T cell hybridoma in the primary culture is measured by quantitating tritiated thymidine deoxyribose {[^3H]TdR} uptake into the DNA of the HT-2 indicator cells of that second culture.
# (§3) For these various assays, the following antigenic peptides were used: HEL11-25, hen egg lysozyme 11-25, AMKRHGLDNYRGYSL(A^d) (SEQ ID NO:5); HEL46-61, hen egg lysozyme 46-61, NTDGSTDYGILQINSR(Ak) (SEQ ID NO:6); HEL106-116, hen egg lysozyme 106-116, NAWVAWRNRCK (E^d) (SEQ ID NO:7); PGCC81-104, pigeon cytochrome c 81-104, […] (Ek) (SEQ ID NO:8), and THMCC82-103, tobacco hornworm moth cytochrome c 82-103, […] (Ek) (SEQ ID NO:9). AE101 series peptides were obtained from commercial sources. In general, the purity and composition of each peptide was confirmed by HPLC separation and mass spectrometry. The native protein antigens were HEL, hen egg lysozyme, and PGCC, pigeon cytochrome C. They were obtained from commercial sources.
# (§4) For the experiments of these Examples, several T cell hybridomas, which are specific for certain antigenic peptides, were used. The TPc9.1 T hybridoma is specific for pigeon cytochrome C 81-104 peptide presented on the murine class II MHC allele E^k. The TPc9.1 hybridoma responds heteroclitically to tobacco hornworm moth cytochrome c 82-103 on E^k. The 3A9 T hybridoma is specific for hen egg lysozyme 46-61 on A^k. The 9.30.B2 hybridoma is specific for hen egg lysozyme 11-25 on A^d, and the G28.C9 hybridoma is specific for hen egg lysozyme 106-116 on E^d. […]
# [2] = tested on: murine E^k MHC class II allele; test: simultaneous assay, E^k allele (CH27 APC, TPc9.1 T hybridoma, THMCC82-103 or PGCC81-104); assay type: cell-based; conditions: for Times Baseline Response, Ek: Table 3, values reduced relative to E^d by a factor of 10
# Protocol: as §1, §2, §3, §4
# [3] = Table 9, AE peptide 64 μM, supernatant 1:4
# [4] = Table 9, AE peptide 64 μM, supernatant 1:4, normalized by a factor of 5
# [5] = Table 6, AE peptide 64 μM, supernatant 1:4
# [6] = Table 6, AE peptide 64 μM, supernatant 1:4, reduced by a factor of 5
# [7] = AE peptide 64 μM, supernatant 1:4
# [8] = Table 10, AE peptide 16 μM (second value), supernatant 1:2
# [9] = Table 10, AE peptide 64 μM (first value), supernatant 1:2
# [10] = Table 10, AE peptide 64 μM, supernatant 1:2 (first value)
# [11] = Table 10, AE peptide 64 μM, supernatant 1:4 (second value)
substance,measurement,setting,value
Ac-LRMKLP D-NH2 [AE244],"Times Baseline Response, E^d",[1]; [3],0.9
same,"Times Baseline Response, E^k",[2]; [4],2.7
Ac-LRMKLP E-NH2 [AE245],"Times Baseline Response, E^d",[1]; [3],0.9
same,"Times Baseline Response, E^k",[2]; [4],2.8
Ac-LRMKLP H-NH2 [AE243],"Times Baseline Response, E^d",[1]; [3],7.2
same,"Times Baseline Response, E^k",[2]; [4],14.5
Ac-LRMKLP HArg-NH2 [AE242],"Times Baseline Response, E^d",[1]; [3],8.0
same,"Times Baseline Response, E^k",[2]; [4],17.6
Ac-LRMKLP L-NH2 [AE251],"Times Baseline Response, E^d",[1]; [3],11.9
same,"Times Baseline Response, E^k",[2]; [4],18.6
Ac-LRMKLP M-NH2 [AE250],"Times Baseline Response, E^d",[1]; [3],13.9
same,"Times Baseline Response, E^k",[2]; [4],21.3
Ac-LRMKLP Q-NH2 [AE247],"Times Baseline Response, E^d",[1]; [3],4.5
same,"Times Baseline Response, E^k",[2]; [4],10.9
Ac-LRMKLP Y-NH2 [AE249],"Times Baseline Response, E^d",[1]; [3],12.2
same,"Times Baseline Response, E^k",[2]; [4],17.1
Ac-LRMKLP[Orn]-NH2 [AE240],"Times Baseline Response, E^d",[1]; [3],9.8
same,"Times Baseline Response, E^k",[2]; [4],11.5
Ac-LRMKLpk-NH2 [AE173],"Times Baseline Response, E^d","[1]; Table 12, AE peptide 1 μM (fourth value), supernatant 1:2",2
same,"Times Baseline Response, E^d","[1]; Table 12, AE peptide 4 μM (third value), supernatant 1:2",10
same,"Times Baseline Response, E^d","[1]; Table 12, AE peptide 16 μM (second value), supernatant 1:2",92
same,"Times Baseline Response, E^d","[1]; Table 12, AE peptide 64 μM (first value), supernatant 1:2",123
same,"Times Baseline Response, E^k","[2]; Table 12, AE peptide 1 μM (fourth value), supernatant 1:4",2.1
same,"Times Baseline Response, E^k","[2]; Table 12, AE peptide 4 μM (third value), supernatant 1:4",4.3
same,"Times Baseline Response, E^k","[2]; Table 12, AE peptide 16 μM (second value), supernatant 1:4",25.0
same,"Times Baseline Response, E^k","[2]; Table 12, AE peptide 64 μM (first value), supernatant 1:4",51.3
Ac-LRM[Cit]LPK-NH2 [AE211],"Times Baseline Response, E^d",[1]; [5],1.7
same,"Times Baseline Response, E^k",[2]; [6],3.4
Ac-LRM[Orn]LPK-NH2 [AE210],"Times Baseline Response, E^d",[1]; [5],6.6
same,"Times Baseline Response, E^k",[2]; [6],9.0
Ac-LR[Cit]KLPK-NH2 [AE196],"Times Baseline Response, E^d","[1]; Table 5, AE peptide 64 μM, supernatant 1:4",13.6
same,"Times Baseline Response, E^k","[2]; Table 5, AE peptide 64 μM, supernatant 1:4, normalized to E^d by a factor of 10",18.4
Ac-M RMKLPK-NH2 [AE190],"Times Baseline Response, Ed",[1]; [7],9.8
same,"Times Baseline Response, Ek",[2]; [7],15.2
Ac-N RMKLPK-NH2 [AE187],"Times Baseline Response, Ed",[1]; [7],6.3
same,"Times Baseline Response, Ek",[2]; [7],9.5
Ac-Q RMKLPK-NH2 [AE188],"Times Baseline Response, Ed",[1]; [7],8.8
same,"Times Baseline Response, Ek",[2]; [7],7.7
Ac-YRAKLPKSAK-NH2 [AE122],"Times Baseline Response, E^d",[1]; [8],9.2
same,"Times Baseline Response, E^d",[1]; [9],16.2
same,"Times Baseline Response, E^k",[2]; [10],46.2
same,"Times Baseline Response, E^k",[2]; [11],41.4
Ac-YRMALPKSAK-NH2 [AE123],"Times Baseline Response, E^d",[1]; [8],10.7
same,"Times Baseline Response, E^d",[1]; [9],24.0
same,"Times Baseline Response, E^k",[2]; [10],65.0
same,"Times Baseline Response, E^k",[2]; [11],51.1
Ac-YRMKAPKSAK-NH2 [AE124],"Times Baseline Response, E^d",[1]; [8],7.3
same,"Times Baseline Response, E^d",[1]; [9],12.5
same,"Times Baseline Response, E^k",[2]; [10],66.0
same,"Times Baseline Response, E^k",[2]; [11],65.9
Ac-YRMKLAKSAK-NH2 [AE125],"Times Baseline Response, E^d",[1]; [8],1.7
same,"Times Baseline Response, E^d",[1]; [9],2.0
same,"Times Baseline Response, E^k",[2]; [10],38.7
same,"Times Baseline Response, E^k",[2]; [11],32.8
Ac-YRMKLPASAK-NH2 [AE126],"Times Baseline Response, E^d",[1]; [8],6.8
same,"Times Baseline Response, E^d",[1]; [9],18.2
same,"Times Baseline Response, E^k",[2]; [10],53.4
same,"Times Baseline Response, E^k",[2]; [11],56.4
Ac-YRMKLPKAAK-NH2 [AE127],"Times Baseline Response, E^d",[1]; [8],12.4
same,"Times Baseline Response, E^d",[1]; [9],19.1
same,"Times Baseline Response, E^k",[2]; [10],63.6
same,"Times Baseline Response, E^k",[2]; [11],63.4
